# Data as given in patent US4100152A, “Peptides” (Takeda Chemical Industries, Ltd., priority 1976, dated 1978).
# What was measured:
# Format in all cases: in vivo
# [1] = system: TSH (thyroid stimulating hormone) release; experiment: TSH-releasing activity (method of Schally et al.); conditions: ratio of effect to that of the same dose of TRH (TRH = 1); rats
# Experimental: (1) TSH-releasing activity
# Using rats, a test was performed in accordance with the method of Schally et al. [J. Biol. Chem. 244, 4077, (1969)].
# (§1) The relative effects of compound (I) by the above 4 procedures were expressed in terms of the ratios of effect of the same dose of compound (I) as that of TRH with the effects of TRH being taken as unity.
# [2] = system: mice (ICR/JCL, male, 4 weeks old); experiment: Anaesthesia antagonism (pentobarbital sodium, recovery of righting reflex); conditions: ratio of effect to that of the same dose of TRH (TRH = 1), 55 mg/kg pentobarbital sodium i.p., compound i.v. after 10 minutes
# [3] = system: mice (ICR/JCL, male, 4 weeks old); experiment: Activity-increasing action (spontaneous activity in activity wheel); conditions: ratio of effect to that of the same dose of TRH (TRH = 1), cumulative wheel rotations during 3 hours after i.v. administration
# Experimental: (3) Activity-increasing action
# Using groups of 10 mice (ICR/JCL, male, 4 weeks old), each mouse was placed in an activity wheel and the activity-increasing action of the medication on the mouse was observed. The cumulative number of rotations caused by the spontaneous activity of the mice during a period of 3 hours following the intravenous administration of compound (I) was compared with the number of revolutions for the control group.
# as §1
# [4] = system: male mice (ICR/JCL) with one caudate nucleus destroyed; experiment: Dopamine activity-potentiating effect (apomorphine-induced turning, caudate nucleus destroyed, reserpine premedication); conditions: ratio of effect to that of the same dose of TRH (TRH = 1), compound given 30 minutes before 0.25 mg/kg apomorphine i.p., reserpine 2 mg/kg i.p. premedication
# Experimental: (4) Dopamine activity-potentiating effect
# Using groups of 10 male mice (ICR/JCL) with one of its caudate nuclei destroyed by suction the effects of compound (I) upon the number of turns and the percent incidence of head turning as caused by 0.25 mg/kg of apomorphine (I.P.), i.e., a dopamine-receptor stimulant, under the influence of premedication (18-22 hours) with 2 mg/kg of reserpine (i.p.) were examined.
# Thus, compound (I) was given 30 minutes before the administration of apomorphine and the result was compared with that for the untreated (control group). This test was performed to ascertain the potentiating effect of the compound upon the central nervous system action of dopamine, the principle of the test being the same as that of the experiment performed by Everett et al. [Fed. Proc. 23, 198, (1964)] for testing the DOPA synergistic effect which involved the administration of Dl-DOPA.
# as §1
compound,measurement,setting,value
"NC(=O)[C@@H]1CCCN1C(=O)[C@H](Cc1c[nH]cn1)NC(=O)[C@@H]1CCC(=O)N1 [TRH, L-pyroglutamyl-L-histidyl-L-prolinamide]",TSH-releasing effect,[1],1
same,Anaesthesia antagonism,[2],1
same,Spontaneous activity-increasing effect,[3],1
same,Dopamine-potentiating effect,[4],1
Oct.His.Pip.NH2 [Oct-His-Pip-NH2],TSH-releasing effect,[1],0.5
same,Anaesthesia antagonism,[2],1.57
same,Spontaneous activity-increasing effect,[3],5
same,Dopamine-potentiating effect,[4],4.00
